Results as given in a melting point compilation (Tetko et al.; mined from patent text by program, amines drawn as free bases though some values may be those of a salt).

Row | SMILES | melting point
1 | COc1ccc(CN2C(=O)C(C)(c3cc(NS(C)(=O)=O)ccc3Cl)c3cc(Cl)ccc32)c(OC)c1 (centres undefined) | 210 °C
2 | O=c1[nH][nH]c(=O)c2c(O)c3ccc(C(F)(F)F)cc3nc12 | 170 to 172 °C
3 | CCN(CC)c1cccc2nc3n(c12)CC(OC)CCN3c1ccc(Cl)cc1Cl (centres undefined) | 120 to 122 °C
4 | COc1ccc(CC2CNC(=O)N2)cc1OCc1ccccc1 (centres undefined) | 154 to 157 °C
5 | CC1(CBr)SC2C(NC(=O)Cc3ccccc3)C(=O)N2C1C(=O)OCC(Cl)(Cl)Cl (centres undefined) | 90 to 93 °C
6 | CCC(CC)n1nnc2c(Oc3c(C)cc(C)cc3C)nc(C)c(C)c21 | 127 to 129 °C
7 | COc1cc(CNC(=O)c2nc3cnn(CCCc4ccccc4)c3c(=O)[nH]2)ccc1F | 155 to 157 °C
8 | Nc1c(Nc2ccon2)cnc2c1COCC2 | 209 to 211 °C
9 | NC(=NC(=O)Cn1c(Cl)ccc1Cl)NC(=O)c1ccccc1 | 212 to 213 °C
10 | CC(C)(C)OC(=O)N[C@H](Cc1ccccc1)C(=O)OCCCNc1cccc2c1C(=O)c1ccccc1C2=O | 168 °C
11 | O=C(NCc1ccncc1)c1ccnc(N2CCN(Cc3ccc(F)cc3)C2=O)c1 | 205 to 207 °C
12 | CS(=O)(=O)N1CCN(CCC(CS(=O)(=O)c2ccc(Oc3ccc(OC(F)(F)F)cc3)cc2)N(O)C=O)CC1 (centres undefined) | 166 to 167 °C
13 | Cc1ccc(-c2ccc(C(=O)Nc3cc4ncc(CN5CCCC5)cc4cc3C)cn2)cc1 | 214 to 218 °C
14 | C=C(CC1(C)C(=O)c2ccc(Cl)cc2C1=O)c1cccc(Cl)n1 (centres undefined) | 72 to 73 °C
15 | O=[N+]([O-])c1ccccc1Nc1ccc(Nc2nccs2)cc1 | 195 to 197 °C
16 | Cc1ccccc1-c1nc2n(c1Br)-c1cccnc1Nc1ccccc1-2 | 220 to 222 °C
17 | O=[N+]([O-])c1ccc(-c2nsc(Cl)n2)cc1 | 143 to 145 °C
18 | COc1cccc(C23CCCC=C2C(=O)N(CC2CCC2)C(=O)C3)c1 (centres undefined) | 89 to 93 °C
19 | COc1cc(Nc2nccc(Nc3ccc(OCc4ccccc4)cc3)n2)cc(OC)c1OC | 161 to 164 °C
20 | COc1cc(Cn2cccc3ncnc2-3)ccc1C(=O)N(C(C)C)C1CCCCC1 | 98 to 100 °C
21 | O=C(CCNC(=O)c1ccccc1C(=O)O)NO | 58 to 65 °C
22 | CCC(CC)(CO)CCS(N)(=O)=O | 79 to 80 °C
23 | COc1on(C)c(=O)c1-c1ccccc1COc1ccccc1C | 90 to 92 °C

Row | SMILES | melting point
24 | O=C(SCCC(=O)N1C(c2ccccc2O)CC[C@H]1C(=O)N[C@@H](Cc1ccccc1)C(=O)O)c1ccccc1 (some centres undefined) | 72 to 102 °C
25 | Cc1cccc2c(=O)[nH]c(C3CN4CCC3CC4)nc12 (centres undefined) | 230 to 231 °C
26 | CC(=O)c1ccc(Oc2ccc(S(C)(=O)=O)cc2)cc1 | 131 to 132 °C
27 | CCc1ccccc1-n1c(=O)[nH]c2c(C(N)=O)nc(-c3cccc(O)c3)nc21 | 355 to 357 °C
28 | COc1cc(C)nc(C)c1C(=O)OC(C)c1nc2c(c(=O)n(C)c(=O)n2C)n1C (centres undefined) | 135 to 138 °C
29 | CCCCCCCNC(=O)Nc1ccc(N(C)C)cc1C(=O)N(CC1CCN(C(c2ccccc2)c2ccccc2)CC1)N(C)C | 178 to 179 °C
30 | CCOC(C)n1c(C(=O)C(F)(F)F)nc(-c2ccc(OC)cc2)c1-c1ccc(OC)cc1 (centres undefined) | 124 to 126 °C
31 | COc1ccccc1N1CCN(CCCN2C(=O)c3ccccc3C2=O)CC1 | 85 to 93 °C
32 | CC(C)=CCN1C(=O)c2ccccc2C1=O | 95 to 97 °C
33 | CC(=O)NCC1CN(c2ccc(N3CCC(O)(C(C#N)C4CC4)CC3)c(F)c2)C(=O)O1 (centres undefined) | 170 to 172 °C
34 | N#Cc1c(Oc2ccc(Oc3ccc(N)cc3)cc2)cccc1Oc1ccc(Oc2ccc(N)cc2)cc1 | 233 to 234 °C
35 | O=C(O)CCOc1cccc2c1CCc1sc(SC(c3ccccc3)c3ccccc3)nc1-2 | 156 to 158 °C
36 | COCCOc1nc(NC(C)=O)nc2ccc(Cl)nc12 | 135 °C
37 | O=C(O)c1cccc(CO[N+](=O)[O-])c1 | 123 to 125 °C
38 | Cc1cncc(C)c1CO | 93 to 95 °C
39 | CN(c1cc(OC(F)(F)F)cc2cc(C3=NCC(CN4CCOCC4)S3)[nH]c12)S(=O)(=O)c1cccs1 (centres undefined) | 165 to 166 °C
40 | CC1(C)OC[C@H](COc2nc(S(C)(=O)=O)nc3[nH]nc(-c4ccccc4Cl)c23)O1 | 161 to 162 °C
41 | Cc1cc(C)c2c(c1C)OCC2c1ccc(C(C)C)cc1 (centres undefined) | 48 to 49 °C
42 | COc1ccc(C(=NOCc2ccc(OCc3nc(-c4ccccc4)oc3C)cc2)C(=O)O)cc1 | 183 to 184 °C
43 | CCOC(=O)c1cc2c3c(ccc2[nH]1)OC[C@H](CO)O3 | 152 to 153 °C
44 | CCOC(=O)Cc1c(C(=O)OCC)[nH]c2ccc(F)cc12 | 128 to 130 °C
45 | COC(=O)c1ccc(C(=O)Nc2ccc(-n3nc(C(F)(F)F)cc3C(F)(F)F)cc2)cc1 | 195 to 196 °C
46 | Cc1c(C(F)(F)F)cnn(-c2cc(OCCC3OCCCO3)c(Cl)cc2F)c1=O | 112 °C

Row | SMILES | melting point
47 | COc1ccc(NC(=O)c2ccc(C(C)(C)CN)cc2)cc1 | 139 to 140 °C
48 | CC1NC(=O)CC2(C)CC1c1ccccc1O2 (centres undefined) | 164 °C
49 | Cc1cccc(C(=O)NN(C(=O)c2ccccc2)C(C)(C)C)c1 | 111 to 114 °C
50 | CC(c1ccc2[nH]nc(S(=O)(=O)c3cccc4ccccc34)c2c1)N1CCN(C)CC1 (centres undefined) | 183 to 185 °C
51 | O=C(c1cccnc1)c1cc(-c2ccncc2)c(N2CCOCC2)s1 | 124 °C
52 | CCCc1nc2cccc(C(=O)OC)c2n1Cc1ccc(-c2ccccc2-c2nc(=O)o[nH]2)cc1 | 224 to 226 °C
53 | CS(=O)(=O)c1ccc(-c2[nH]c3ccccc3c2-c2ccc(Cl)cc2)cc1 | 198 to 200 °C
54 | CCCc1c(C(C)=NO)c2ccc(C(N)=O)cc2n1Cc1ccccc1Cl | 212 to 216 °C
55 | O=C(NCCCCCCCCCNC(=O)c1ccc(OC(F)(F)F)cc1)c1ccc(OC(F)(F)F)cc1 | 144 to 145 °C
56 | COCOc1ccc(C=O)c2cccc(C)c12 | 42 to 43 °C
57 | CC(C)c1cccc(C(C)C)c1NC(=O)CNC(C)c1ccccn1 (centres undefined) | 99 to 101 °C
58 | N#CC(Cc1ccccn1)(c1ccccc1)c1ccccc1 | 116 to 117 °C
59 | ON=c1cc(-c2cc3cccn3cn2)oc2cccc(C(F)(F)F)c12 | 255 to 257 °C
60 | Cc1c(-c2ccc(O)cc2)n(Cc2ccc(OCCN3CC4(C)CC3CC(C)(C)C4)cc2)c2ccc(O)cc12 (centres undefined) | 98 to 100 °C
61 | CN1C(=O)C(c2ccc(OC(F)F)cc2)(c2cccc(CCCC(F)F)c2)N=C1N (centres undefined) | 54 to 57 °C
62 | CCOC(=O)C=Cc1ccc(OCc2ccccc2)c(OC)c1 | 74.5 to 75 °C
63 | COc1ccc(NC=C(C#N)C(=O)Nc2cc(OC)c(Cl)cc2Cl)cc1F | 275 to 276 °C
64 | Oc1cc(-c2ccc(F)cc2)nc2ccsc12 | 316 to 318 °C
65 | CC(=O)c1ccsc1S(N)(=O)=O | 193 to 196 °C
66 | CCn1ncc2c3c4c(nc21)CCc1ccccc1-c4nn3C | 140 to 141 °C
67 | CCSc1nc(N)c(C(N)=S)s1 | 180 to 183 °C
68 | CCCNc1ccc([N+](=O)[O-])cc1C(=O)c1ccccc1 | 150 °C
69 | CCOCCOc1cccc2oc(-c3cccs3)cc(=O)c12 | 111 to 113 °C
